Measurements as given in patent publication US12485134B2, “Use of nicotinamide riboside, nicotinic acid riboside, reduced nicotinyl riboside compounds, and nicotinyl riboside compound derivatives in formulations” (ChromaDex Inc., priority 2019, dated 2025).

Tested on: hydrolyzed whey protein isolate
Test: NR-Cl binding to hydrolyzed whey protein isolate (10 kDa cutoff filtration, unbound NR-Cl in filtrate by HPLC)
Experimental: A. Solutions of hydrolyzed whey protein isolate (>90% protein, 2-7% degree of hydrolysis) were prepared at varying concentrations and filtered through 0.2 μm sterile filters. An aliquot of sterile nicotinamide riboside chloride (“NR-Cl,” a salt of NR, I) in water solution was spiked into the sterile whey solutions, targeting a final NR-Cl concentration of 1 mmol per liter (0.3 mg/mL). The solutions containing the mixture of hydrolyzed whey and NR-Cl were filtered through 10 kDa molecular weight cutoff centrifuge filters to remove the whey proteins (14-80 kDa) and any NR-Cl that was bound to the proteins. Any NR-Cl that was not bound to the whey proteins was recovered in the filtrate and quantitated by HPLC.
The solutions of hydrolyzed whey protein isolate and NR-Cl were stored at ambient and refrigerated conditions and analyzed at various timepoints for NR-Cl protein binding and stability.
A study measuring the stability of NR-Cl in hydrolyzed and non-hydrolyzed whey protein was conducted with 2 mmol/L NR-Cl (0.6 mg/mL) and 20 mg/mL protein (33.3:1 wt:wt protein:NR-Cl). […] (See Table 5).

Question: NC(=O)c1ccc[n+]([C@@H]2O[C@H](CO)[C@@H](O)[C@H]2O)c1.[Cl-] [NR-Cl, nicotinamide riboside chloride] was tested. Which “fraction of NR-Cl bound to whey protein over the course of the experiments” value (7 days ambient, 30 days refrigerated) did it give?
Answer: remain stable

Question: And the “% NR-Cl Bound to Protein” value (Hydrolyzed Whey Protein Isolate 20 mg/mL, 2 mmol/L NR-Cl (33.3:1 wt:wt), 0 days refrigerated)?
Answer: 55%

Question: What about the “% NR-Cl Bound to Protein” value (Hydrolyzed Whey Protein Isolate 20 mg/mL, 2 mmol/L NR-Cl (33.3:1 wt:wt), 1 day refrigerated) of the same compound?
Answer: 56%

Question: And the “% NR-Cl Bound to Protein” value (hydrolyzed whey protein isolate:NR-Cl 18.3:1 (wt:wt), 1 mmol/L NR-Cl)?
Answer: 41%

Question: What about the “% NR-Cl Bound to Protein” value (hydrolyzed whey protein isolate:NR-Cl 37:1 (wt:wt), 1 mmol/L NR-Cl) of the same compound?
Answer: 47%

Question: And the “% NR-Cl Bound to Protein” value (hydrolyzed whey protein isolate:NR-Cl 73:1 (wt:wt), 1 mmol/L NR-Cl)?
Answer: 60%

Question: What about the “% NR-Cl Bound to Protein” value (hydrolyzed whey protein isolate:NR-Cl 147:1 (wt:wt), 1 mmol/L NR-Cl) of the same compound?
Answer: 65%

Question: What about the “% NR-Cl Bound to Protein” value (hydrolyzed whey protein isolate:NR-Cl 293:1 (wt:wt), 1 mmol/L NR-Cl) of the same compound?
Answer: 67%

Question: What about the “% NR-Cl Bound to Protein” value (hydrolyzed whey:NR-Cl 18.3:1 (wt:wt), 0 days ambient) of the same compound?
Answer: 41%

Question: And the “% NR-Cl Bound to Protein” value (hydrolyzed whey:NR-Cl 18.3:1 (wt:wt), 0 days refrigerated)?
Answer: 41%

Question: What about the “% NR-Cl Bound to Protein” value (hydrolyzed whey:NR-Cl 18.3:1 (wt:wt), 3 days ambient) of the same compound?
Answer: 44%

Question: What about the “% NR-Cl Bound to Protein” value (hydrolyzed whey:NR-Cl 18.3:1 (wt:wt), 5 days ambient) of the same compound?
Answer: 45%

Question: And the “% NR-Cl Bound to Protein” value (hydrolyzed whey:NR-Cl 18.3:1 (wt:wt), 7 days ambient)?
Answer: 43%

Question: What about the “% NR-Cl Bound to Protein” value (hydrolyzed whey:NR-Cl 18.3:1 (wt:wt), 30 days refrigerated) of the same compound?
Answer: 24%

Question: And the “% NR-Cl Bound to Protein” value (hydrolyzed whey:NR-Cl 37:1 (wt:wt), 0 days ambient)?
Answer: 47%

Question: What about the “% NR-Cl Bound to Protein” value (hydrolyzed whey:NR-Cl 37:1 (wt:wt), 0 days refrigerated) of the same compound?
Answer: 47%

Question: And the “% NR-Cl Bound to Protein” value (hydrolyzed whey:NR-Cl 37:1 (wt:wt), 3 days ambient)?
Answer: 55%

Question: What about the “% NR-Cl Bound to Protein” value (hydrolyzed whey:NR-Cl 37:1 (wt:wt), 5 days ambient) of the same compound?
Answer: 54%

Question: And the “% NR-Cl Bound to Protein” value (hydrolyzed whey:NR-Cl 37:1 (wt:wt), 7 days ambient)?
Answer: 54%

Question: What about the “% NR-Cl Bound to Protein” value (hydrolyzed whey:NR-Cl 37:1 (wt:wt), 30 days refrigerated) of the same compound?
Answer: 45%

Question: What about the “% NR-Cl Bound to Protein” value (hydrolyzed whey:NR-Cl 73:1 (wt:wt), 0 days ambient) of the same compound?
Answer: 60%

Question: And the “% NR-Cl Bound to Protein” value (hydrolyzed whey:NR-Cl 73:1 (wt:wt), 0 days refrigerated)?
Answer: 60%

Question: And the “% NR-Cl Bound to Protein” value (hydrolyzed whey:NR-Cl 73:1 (wt:wt), 3 days ambient)?
Answer: 66%

Question: What about the “% NR-Cl Bound to Protein” value (hydrolyzed whey:NR-Cl 73:1 (wt:wt), 5 days ambient) of the same compound?
Answer: 65%

Question: What about the “% NR-Cl Bound to Protein” value (hydrolyzed whey:NR-Cl 73:1 (wt:wt), 7 days ambient) of the same compound?
Answer: 65%

Question: And the “% NR-Cl Bound to Protein” value (hydrolyzed whey:NR-Cl 73:1 (wt:wt), 30 days refrigerated)?
Answer: 57%

Question: What about the “% NR-Cl Bound to Protein” value (hydrolyzed whey:NR-Cl 147:1 (wt:wt), 0 days ambient) of the same compound?
Answer: 65%

Question: What about the “% NR-Cl Bound to Protein” value (hydrolyzed whey:NR-Cl 147:1 (wt:wt), 3 days ambient) of the same compound?
Answer: 71%

Question: And the “% NR-Cl Bound to Protein” value (hydrolyzed whey:NR-Cl 147:1 (wt:wt), 5 days ambient)?
Answer: 72%

Question: What about the “% NR-Cl Bound to Protein” value (hydrolyzed whey:NR-Cl 147:1 (wt:wt), 7 days ambient) of the same compound?
Answer: 69%

Question: What about the “% NR-Cl Bound to Protein” value (hydrolyzed whey:NR-Cl 293:1 (wt:wt), 0 days ambient) of the same compound?
Answer: 67%

Question: What about the “% NR-Cl Bound to Protein” value (hydrolyzed whey:NR-Cl 293:1 (wt:wt), 3 days ambient) of the same compound?
Answer: 62%

Question: And the “% NR-Cl Bound to Protein” value (hydrolyzed whey:NR-Cl 293:1 (wt:wt), 7 days ambient)?
Answer: 72%
